Source: patent US10759813B2, “Neprilysin inhibitors” (THERAVANCE BIOPHARMA R&D IP, LLC, priority 2010, dated 2020)

What follows are compounds tested against human neprilysin (EC 3.4.24.11; NEP) (Homo sapiens (Human), UniProt P08473) (assay: In vitro enzyme inhibition assay at human NEP (fluorogenic peptide substrate)). Conditions: pKi values at human NEP, recombinant human NEP.
Assay type: biochemical
Outline: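 pKi derived from apparent Ki fitted as v=v0/[1+(I/K′)] to Ex320/Em405 fluorescence. Compounds (pM to 10 μM) sat with recombinant human enzyme 30 min at 37 °C before 10 μM fluorogenic Mca peptide was added in HEPES pH 7.5 buffer with 10 μM ZnSO4; 20 min reaction, acetic acid quench.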

human neprilysin (EC 3.4.24.11; NEP), sequence (P08473 52-750): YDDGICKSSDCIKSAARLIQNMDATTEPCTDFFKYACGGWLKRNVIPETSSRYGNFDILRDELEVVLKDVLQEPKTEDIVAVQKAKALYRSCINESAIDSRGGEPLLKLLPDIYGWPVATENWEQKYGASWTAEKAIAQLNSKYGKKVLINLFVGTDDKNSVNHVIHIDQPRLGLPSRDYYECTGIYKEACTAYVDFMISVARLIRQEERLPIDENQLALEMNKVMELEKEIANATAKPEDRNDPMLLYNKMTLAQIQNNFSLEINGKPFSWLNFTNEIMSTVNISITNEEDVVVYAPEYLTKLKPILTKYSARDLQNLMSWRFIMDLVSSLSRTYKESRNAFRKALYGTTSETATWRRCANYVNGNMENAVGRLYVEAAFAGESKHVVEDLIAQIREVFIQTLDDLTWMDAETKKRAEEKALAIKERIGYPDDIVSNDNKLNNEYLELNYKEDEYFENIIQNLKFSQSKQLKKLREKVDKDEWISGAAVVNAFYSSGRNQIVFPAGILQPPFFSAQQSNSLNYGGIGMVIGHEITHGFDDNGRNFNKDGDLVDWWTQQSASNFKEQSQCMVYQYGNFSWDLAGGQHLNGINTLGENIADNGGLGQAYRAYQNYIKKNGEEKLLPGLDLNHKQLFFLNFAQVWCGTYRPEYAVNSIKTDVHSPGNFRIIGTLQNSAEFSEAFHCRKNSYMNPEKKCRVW

Row | pKi | Ki | Structure (SMILES)
1 | ≥9.0 |  | CCOc1cc(C(=O)N[C@H](Cc2ccc(-c3cccc(Cl)c3)cc2)C[C@@H](O)C(=O)O)n[nH]1 [Example 18-40, (2R,4R)-5-(3′-Chloro-biphenyl-4-yl)-4-[(5-ethoxy-1H-pyrazole-3-carbonyl)-amino]-2-hydroxy-pentanoic acid]
2 | ≥9.0 |  | O=C(N[C@H](Cc1ccc(-c2cccc(Cl)c2)cc1)C[C@@H](O)C(=O)O)c1cc(=O)n(-c2ccccc2)[nH]1 [Example 18-41, (2R,4R)-5-(3′-Chlorobiphenyl-4-yl)-2-hydroxy-4-[(5-oxo-1-phenyl-2,5-dihydro-1H-pyrazole-3-carbonyl)-amino]-pentanoic acid]
3 | ≥9.0 |  | O=C(N[C@H](Cc1ccc(-c2cccc(Cl)c2)cc1)C[C@@H](O)C(=O)O)c1nn(-c2cccc(Cl)c2)c(=O)[nH]1 [Example 18-42, (2R,4R)-5-(3′-Chloro-biphenyl-4-yl)-4-{[1-(3-chloro-phenyl)-5-oxo-4,5-dihydro-1H-[1,2,4]triazole-3-carbonyl]-amino}-2-hydroxy-pentanoic acid]
4 | ≥9.0 |  | O=C(N[C@H](Cc1ccc(-c2cccc(Cl)c2)cc1)C[C@@H](O)C(=O)O)c1nn(-c2ccccc2Cl)c(=O)[nH]1 [Example 18-43, (2R,4R)-5-(3′-Chloro-biphenyl-4-yl)-4-{[1-(2-chloro-phenyl)-5-oxo-4,5-dihydro-1H-[1,2,4]triazole-3-carbonyl]-amino}-2-hydroxy-pentanoic acid]
5 | ≥9.0 |  | O=C(N[C@H](Cc1ccc(-c2cccc(Cl)c2)cc1)C[C@@H](O)C(=O)O)c1nn(-c2ccc(F)cc2)c(=O)[nH]1 [Example 18-44, (2R,4R)-5-(3′-Chloro-biphenyl-4-yl)-4-{[1-(4-fluoro-phenyl)-5-oxo-4,5-dihydro-1H-[1,2,4]triazole-3-carbonyl]-amino}-2-hydroxy-pentanoic acid]
6 | ≥9.0 |  | O=C(N[C@H](Cc1ccc(-c2cccc(Cl)c2)cc1)C[C@@H](O)C(=O)O)c1nnc(C(F)(F)F)[nH]1 [Example 18-45, (2R,4R)-5-(3′-Chlorobiphenyl-4-yl)-2-hydroxy-4-[(5-trifluoromethyl-4H-[1,2,4]triazole-3-carbonyl)-amino]-pentanoic acid]
7 | ≥9.0 |  | O=C(N[C@H](Cc1ccc(-c2cccc(Cl)c2)cc1)C[C@@H](O)C(=O)O)c1n[nH]c(Cl)n1 [Example 18-46, (2R,4R)-5-(3′-Chlorobiphenyl-4-yl)-4-[(5-chloro-1H-[1,2,4]triazole-3-carbonyl)-amino]-2-hydroxy-pentanoic acid]
8 | ≥9.0 |  | O=C(N[C@H](Cc1ccc(-c2cccc(Cl)c2)cc1)C[C@@H](O)C(=O)O)c1nn(-c2ccccc2)c(=O)[nH]1 [Example 18-47, (2R,4R)-5-(3′-Chlorobiphenyl-4-yl)-2-hydroxy-4-[(5-oxo-1-phenyl-4,5-dihydro-1H-[1,2,4]triazole-3-carbonyl)-amino]-pentanoic acid]
9 |  | 1.26 to 10 nM | O=C(N[C@H](Cc1ccc(-c2cccc(Cl)c2)cc1)C[C@@H](O)C(=O)O)c1ccc(=O)n(Cc2ccccc2)n1 [Example 18-48, (2R,4R)-4-[(1-Benzyl-6-oxo-1,6-dihydro-pyridazine-3-carbonyl)-amino]-5-(3′-chlorobiphenyl-4-yl)-2-hydroxy-pentanoic acid]
10 |  | 1.26 to 10 nM | O=C(N[C@H](Cc1ccc(-c2cccc(Cl)c2)cc1)C[C@@H](O)C(=O)O)c1ccc(=O)n(-c2ccccc2)n1 [Example 18-49, (2R,4R)-5-(3′-Chlorobiphenyl-4-yl)-2-hydroxy-4-[(6-oxo-1-phenyl-1,6-dihydro-pyridazine-3-carbonyl)-amino]-pentanoic acid]
11 | ≥9.0 |  | O=C(N[C@H](Cc1ccc(-c2cccc(Cl)c2)cc1)C[C@@H](O)C(=O)O)c1ccc(O)nn1 [Example 18-50, (2R,4R)-5-(3′-Chlorobiphenyl-4-yl)-2-hydroxy-4-[(6-hydroxy-pyridazine-3-carbonyl)-amino]-pentanoic acid]
12 | ≥9.0 |  | O=C(N[C@H](Cc1ccc(-c2cc(Cl)ccc2Cl)cc1)C[C@@H](O)C(=O)O)c1cn(O)nn1 [Example 19-1, (2R,4R)-5-(2′,5′-Dichlorobiphenyl-4-yl)-2-hydroxy-4-[(1-hydroxy-1H-[1,2,3]triazole-4-carbonyl)-amino]-pentanoic acid]
13 | ≥9.0 |  | O=C(N[C@H](Cc1ccc(-c2cc(Cl)ccc2F)cc1)C[C@@H](O)C(=O)O)c1cn(O)nn1 [Example 19-6, (2R,4R)-5-(5′-Chloro-2′-fluorobiphenyl-4-yl)-2-hydroxy-4[(1-hydroxy-1H-[1,2,3]triazole-4-carbonyl)-amino]-pentanoic acid]
14 | ≥9.0 |  | Cc1ccc(Cl)cc1-c1ccc(C[C@H](C[C@@H](O)C(=O)O)NC(=O)c2cn(O)nn2)cc1 [Example 19-12, (2R,4R)-5-(5′-Chloro-2′-methyl-biphenyl-4-yl)-2-hydroxy-4-[(1-hydroxy-1H-[1,2,3]triazole-4-carbonyl)-amino]-pentanoic acid]
15 | ≥9.0 |  | COc1ccccc1-c1ccc(C[C@H](C[C@@H](O)C(=O)O)NC(=O)c2cn(O)nn2)cc1 [Example 19-17, (2R,4R)-2-Hydroxy-4-[(1-hydroxy-1H-[1,2,3]triazole-4-carbonyl)-amino]-5-(2′-methoxy-biphenyl-4-yl)-pentanoic acid]
16 | ≥9.0 |  | COc1cc(C(=O)N[C@H](Cc2ccc(-c3cc(Cl)ccc3F)cc2)C[C@@H](O)C(=O)O)on1 [Example 19-19, (2R,4R)-5-(5′-Chloro-2′-fluoro-biphenyl-4-yl)-2-hydroxy-4-[(3-methoxy-isoxazole-5-carbonyl)-amino]-pentanoic acid]
17 | ≥9.0 |  | O=C(N[C@H](Cc1ccc(-c2cc(Cl)ccc2F)cc1)C[C@@H](O)C(=O)O)c1nn(-c2ccccc2)c(=O)[nH]1 [Example 19-20, (2R,4R)-5-(5′-Chloro-2′-fluoro-biphenyl-4-yl)-2-hydroxy-4-[(5-oxo-1-phenyl-4,5-dihydro-1H-[1,2,4]triazole-3-carbonyl)-amino]-pentanoic acid]
18 | ≥9.0 |  | O=C(N[C@H](Cc1ccc(-c2ccccc2)cc1Cl)C[C@@H](O)C(=O)O)c1c[nH]nn1 [Example 20-1, (2R,4R)-5-(3-Chlorobiphenyl-4-yl)-2-hydroxy-4-[(1H-[1,2,3]triazole-4-carbonyl)-amino]-pentanoic acid]
19 | ≥9.0 |  | O=C(N[C@H](Cc1ccc(-c2ccccc2)cc1Cl)C[C@@H](O)C(=O)O)c1cnn[nH]1 [Example 20-2, (2R,4R)-5-(3-Chlorobiphenyl-4-yl)-2-hydroxy-4-[(3H-[1,2,3]triazole-4-carbonyl)-amino]-pentanoic acid]

Row | Structure (SMILES) | pKi | Ki
20 | CC(=O)OCOn1nncc1C(=O)N[C@H](Cc1ccc(-c2cc(Cl)ccc2F)cc1)C[C@@H](O)C(=O)O [Example 19-18, (2R,4R)-4-[(3-Acetoxymethoxy-3H-[1,2,3]triazole-4-carbonyl)-amino]-5-(5′-chloro-2′-fluoro-biphenyl-4-yl)-2-hydroxy-pentanoic acid] | ≥9.0 | 
21 | CC(=O)OCOn1nnc2ccc(C(=O)N[C@H](Cc3ccc(-c4cc(Cl)ccc4Cl)cc3)C[C@@H](O)C(=O)O)cc21 [Example 19-21, (2R,4R)-4-[(3-Acetoxymethoxy-3H-benzotriazole-5-carbonyl)-amino]-5-(2′,5-dichloro-biphenyl-4-yl)-2-hydroxy-pentanoic acid] |  | ≤ 1 nM
